Target: c-MET (Homo sapiens, UniProt P08581)
Assay: Ki determination for the inhibition of c-MET (standard radiometric 33P-ATP kinase assay, polyE4Y substrate)
Format: biochemical
Details: 1.0 nM c-Met, 35 μM ATP, 0.5 mg/mL polyE4Y, 20 min; competitive tight-binding fit
Description: Ki Determination for the Inhibition of c-MET
Compounds of the invention were screened for their ability to inhibit c-MET kinase activity using a standard radiometric assay. Briefly, in this kinase assay the transfer of the terminal ^33P-phosphate in ^33P-ATP to substrate polyE4Y is interrogated. The assay was carried out in 96-well plates to a final volume of 100 μL per well containing 1.0 nM c-Met, 100 mM HEPES (pH 7.5), 10 mM MgCl2, 25 mM NaCl, 0.01% BSA, 1 mM DTT, 0.5 mg/mL polyE4Y, and 35 μM ATP. Accordingly, compounds of the invention were dissolved in DMSO to make 10 mM initial stock solutions. Serial dilutions in DMSO were then made to obtain the final solutions for the assay. A 1.5 μL aliquot of DMSO or inhibitor in DMSO was added to each well. The reaction was initiated by the addition of ^33P-ATP and polyE4Y (obtained from Sigma). After 20 min, the reaction was quenched with 50 μL of 30% trichloroacetic acid (TCA) containing 4 mM ATP. The reaction mixture was transferred to the 0.66 mm GF filter plates (Corning) and washed three times with 5% TCA. Following the addition of 50 μL of Ultimate Gold™ high efficiency scintillant (Packard Bioscience), the samples were counted in a Packard TopCount NXT Microplate Scintillation and Luminescence Counter (Packard BioScience). The Ki values were calculated using Microsoft Excel Solver macros to fit the data to the kinetic model for competitive tight-binding inhibition.

Chain of c-MET (P08581 25-1390): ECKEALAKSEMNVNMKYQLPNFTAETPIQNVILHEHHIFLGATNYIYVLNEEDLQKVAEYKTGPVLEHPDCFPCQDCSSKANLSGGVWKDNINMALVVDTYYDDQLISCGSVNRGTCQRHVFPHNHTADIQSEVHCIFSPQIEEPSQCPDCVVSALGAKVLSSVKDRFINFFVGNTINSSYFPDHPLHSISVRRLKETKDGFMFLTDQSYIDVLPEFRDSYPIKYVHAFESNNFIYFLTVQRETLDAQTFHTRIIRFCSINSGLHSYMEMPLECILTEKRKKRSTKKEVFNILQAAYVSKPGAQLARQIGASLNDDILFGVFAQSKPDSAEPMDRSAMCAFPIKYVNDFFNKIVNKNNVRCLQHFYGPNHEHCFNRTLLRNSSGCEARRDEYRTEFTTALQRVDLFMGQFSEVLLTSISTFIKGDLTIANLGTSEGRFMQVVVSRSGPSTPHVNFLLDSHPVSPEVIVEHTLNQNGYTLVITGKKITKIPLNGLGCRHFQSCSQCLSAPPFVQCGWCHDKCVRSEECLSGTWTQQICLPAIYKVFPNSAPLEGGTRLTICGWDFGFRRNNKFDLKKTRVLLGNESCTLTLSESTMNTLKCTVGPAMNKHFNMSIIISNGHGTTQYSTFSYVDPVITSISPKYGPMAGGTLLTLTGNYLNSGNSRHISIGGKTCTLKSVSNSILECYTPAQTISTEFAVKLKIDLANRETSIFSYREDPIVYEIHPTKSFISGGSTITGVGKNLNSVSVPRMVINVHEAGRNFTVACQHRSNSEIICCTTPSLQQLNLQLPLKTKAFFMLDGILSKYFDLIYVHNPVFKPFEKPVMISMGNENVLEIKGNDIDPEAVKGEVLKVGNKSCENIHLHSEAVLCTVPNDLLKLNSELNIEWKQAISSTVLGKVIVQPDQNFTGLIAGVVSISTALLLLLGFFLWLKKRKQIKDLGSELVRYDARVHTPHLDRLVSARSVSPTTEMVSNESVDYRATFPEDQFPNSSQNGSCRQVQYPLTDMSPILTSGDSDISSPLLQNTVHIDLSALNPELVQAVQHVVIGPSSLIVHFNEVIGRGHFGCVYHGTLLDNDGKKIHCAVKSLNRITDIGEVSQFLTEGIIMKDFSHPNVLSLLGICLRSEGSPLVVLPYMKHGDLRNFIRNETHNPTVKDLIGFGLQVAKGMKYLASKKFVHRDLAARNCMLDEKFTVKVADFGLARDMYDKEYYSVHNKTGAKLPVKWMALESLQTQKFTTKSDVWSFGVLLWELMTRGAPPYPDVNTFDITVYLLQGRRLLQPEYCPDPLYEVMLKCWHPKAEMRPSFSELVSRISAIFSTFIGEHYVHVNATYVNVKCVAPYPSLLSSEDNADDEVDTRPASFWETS

Row | Compound | Ki [µM]
1 | Nc1ncc(-c2cnn(C(c3ccccc3)(c3ccccc3)c3ccccc3)c2)cc1-c1nnnn1-c1cccc(F)c1F [I-A-365] | 0.1 to 1
2 | CC(=O)Nc1cccc(-c2cnc(N)c(-c3nnnn3-c3cccc(Cl)c3)c2)c1 [I-A-359] | 0.1 to 1
3 | Nc1ncc(-c2ccncc2)nc1-c1nncn1-c1cccc(F)c1F [I-A-3] | 0.1 to 1
4 | Nc1ncc(-c2ccccc2)cc1-c1nncn1-c1cccc(Cl)c1Cl [I-A-74] | 0.1 to 1
5 | Nc1ncc(-c2cnn(C3CCNCC3)c2)cc1-c1nnnn1-c1cc(F)ccc1Cl [I-A-637] | 0.1 to 1
6 | Nc1ncc(-c2cccnc2)cc1-c1nnsc1-c1cccc(Cl)c1Cl [I-C-1] | 0.1 to 1
7 | Nc1ncc(-c2ccc(N3CCCC3)nc2)cc1-c1nnsc1-c1cccc(Cl)c1Cl [I-C-4] | 0.1 to 1
8 | CC(=O)Nc1ccc(-c2cnc(N)c(-c3nnnn3-c3c(F)cccc3Cl)c2)cc1 [I-A-639] | 0.1 to 1
9 | Nc1ncc(-c2ccc(C3CCNCC3)cc2)cc1-n1nnnc1-c1cccc(F)c1F [I-E-3] | 0.1 to 1
10 | Nc1ncc(-c2cccnc2)cc1-c1nnnn1-c1cccc(Cl)c1F [I-A-557] | 0.1 to 1
11 | COc1c(F)cccc1-n1nnnc1-c1cc(-c2ccc(NC(C)=O)cc2)cnc1N [I-A-588] | 0.1 to 1
12 | COc1c(F)cccc1-n1nnnc1-c1cc(-c2ccc(CN(C)C)cc2)cnc1N [I-A-589] | ≤ 0.1
13 | Nc1ncc(-c2cnn(C3CCNCC3)c2)cc1-c1nnnn1-c1c(F)ccc(Cl)c1F [I-A-382] | ≤ 0.1
14 | CCNC(=O)Nc1nc2cc(F)c(-c3cnc(N)c(-c4nnnn4-c4cccc(F)c4F)n3)cc2[nH]1 [I-A-53] | 0.1 to 1
15 | Nc1ncc(-c2ccc(OCCN3CCCC3)cc2)cc1-c1nnnn1-c1cccc(F)c1F [I-A-346] | ≤ 0.1
16 | CN(C)Cc1ccc(-c2cnc(N)c(-c3nnnn3-c3cccc(F)c3F)c2)cn1 [I-A-154] | 0.1 to 1
17 | Nc1ncc(C2=CCN(C3CCNCC3)CC2)cc1-c1nnnn1-c1cccc(F)c1F [I-A-424] | 0.1 to 1
18 | CN(C)Cc1ccc(-c2cnc(N)c(-c3nnnn3-c3c(F)ccc(F)c3F)c2)cc1 [I-A-381] | ≤ 0.1
19 | Nc1ncc(-c2ccoc2)cc1-c1nnnn1-c1cccc(F)c1F [I-A-497] | ≤ 0.1

Other lines, results leading:

Row | Ki [µM] | Compound
20 | ≤ 0.1 | Cc1cccc(-c2cnc(N)c(-c3nnnn3-c3cccc(F)c3F)c2)c1 [I-A-242]
21 | ≤ 0.1 | CC1CN(Cc2ccc(-c3cnc(N)c(-c4nnnn4-c4cccc(Cl)c4Cl)c3)cc2)CCN1 (centres unmarked) [I-A-106]
22 | ≤ 0.1 | Nc1ncc(-c2cc3c(s2)CCNCC3)nc1-c1nnnn1-c1cccc(F)c1F [I-A-653]
23 | ≤ 0.1 | Nc1ncc(-c2cnn(C3CCN(CC4CC4)CC3)c2)cc1-c1nnnn1-c1cccc(F)c1F [I-A-449]
24 | ≤ 0.1 | CNCc1ccc(-c2cnc(N)c(-c3nnnn3-c3cccc(F)c3F)c2)cc1 [I-A-200]
25 | ≤ 0.1 | Nc1ncc(-c2ccc(C(=O)NC3CC3)cc2)cc1-c1nnnn1-c1cccc(F)c1F [I-A-137]
26 | ≤ 0.1 | CN(C)Cc1ccc(-c2cnc(N)c(-c3nnnn3-c3cccc(F)c3F)c2)cc1F [I-A-165]
27 | ≤ 0.1 | CC(=O)N(C)c1ccc(-c2cnc(N)c(-c3nnnn3-c3cccc(F)c3F)c2)cc1 [I-A-337]
28 | ≤ 0.1 | Nc1ncc(-c2cnn([C@H]3CCNC3)c2)cc1-c1nnnn1-c1cccc(F)c1F [I-A-412]
29 | ≤ 0.1 | Nc1ncc(-c2cnn(C3CCCNCC3)c2)nc1-c1nnnn1-c1cccc(F)c1F (centres unmarked) [I-A-656]
30 | ≤ 0.1 | CN1CCN(c2ccc(-c3cnc(N)c(-c4nnnn4-c4cccc(Cl)c4Cl)c3)cc2)CC1 [I-A-85]
31 | ≤ 0.1 | Nc1ncc(-c2cnn(C3CCCCC3)c2)cc1-c1nnnn1-c1cccc(F)c1F [I-A-403]
32 | ≤ 0.1 | CC(C)N1CCC(n2cc(-c3cnc(N)c(-c4nncn4-c4cccc(Cl)c4F)c3)cn2)CC1 [I-A-471]
33 | ≤ 0.1 | CC(=O)N1CC=C(c2cnc(N)c(-c3nnnn3-c3cccc(F)c3F)c2)CC1 [I-A-510]
34 | ≤ 0.1 | CC(=O)Nc1cccc(-c2cnc(N)c(-c3nnnn3-c3cccc(Cl)c3F)c2)c1 [I-A-344]
35 | ≤ 0.1 | Nc1ncc(-c2ccc(CN3CCCC3)cc2)cc1-c1nnnn1-c1c(F)cccc1F [I-A-615]

Source: patent US8232406B2, “c-MET protein kinase inhibitors” (Vertex Pharmaceuticals Incorporated, priority 2006, dated 2012)
